# Measured values as given in patent US12644133B2, “Methods and compositions to increase somatic cell nuclear transfer (SCNT) efficiency by removing histone H3-lysine trimethylation” (The Children's Medical Center Corporation, priority 2014, dated 2026).
# What was measured:
# [1] = test system: reprogramming resistant regions (RRRs); assay: RNA-seq analysis of 2-cell SCNT embryos; assay type: cell-based, mouse
# Method: The embryos were directly lysed and used for cDNA synthesis using SMARTer Ultra Low Input RNA cDNA preparation kit (Clontech). After amplification, the cDNA samples were fragmented using Covaris sonicator (Covaris). Sequencing libraries were made with the fragmented DNA using NEBNext Ultra DNA Library Prep Kit for Illumina according to manufacturer's instruction (New England Biolabs). Single end 50 bp sequencing was performed on a HiSeq 2500 sequencer (Illumina). Sequencing reads were mapped to the mouse genome (mm9) with NovoalignV3.02.00. All programs were performed with default settings (unless otherwise specified). Uniquely mapped reads (about 70% of total reads) were subsequently assembled into transcripts guided by the reference annotation (UCSC gene models) with Cufflinks v2.0.2. Expression level of each gene was quantified with normalized FPKM (fragments per kilobase of exon per million mapped fragments). […] Statistical analyses were implemented with R (world wide web at www.r-project.org/). Independent 2-group Wilcoxon rank sum test were used to compare distributions using the wilcox.test function in R. Pearson's r coefficient was calculated using the cor function with default parameters. The hierarchical clustering analysis of the global gene expression pattern in different samples was carried out using hearmap.2 function (gplots package) in R.
# A sliding window (size 100 kb, step size 20 kb) was used to assess the genome-wide expression level of 1-cell and 2-cell embryos. For each window, the expression level was quantified with normalized RPM (reads per millions of uniquely mapped reads). […] These activated regions were classed into three groups based on their expression differences in SCNT and IVF 2-cell embryos.
# [2] = test system: H3K9me3; assay: Immunostaining of H3K9me3 in SCNT embryos; assay type: cell-based, mouse; conditions: mRNA injected at 5 hpa; cumulus donor cells
# Method: Somatic cell nuclear transfer was carried out as described previously (Matoba et al., 2011). Briefly, recipient MII oocytes were collected from superovulated adult BDF1 females by brief treatment with 300 U/ml bovine testicular hyaluronidase (Calbiochem). Isolated MII oocytes were enucleated in Hepes-buffered KSOM medium containing 7.5 μg/ml of cytochalasin B (Calbiochem #250233). The nuclei of donor cumulus cells or Sertoli cells were injected into the enucleated oocytes using a Piezo-driven micromanipulator (Primetech #PMM-150FU). MEF cells were fused with enucleated oocytes by inactivated Sendai virus envelope (HVJ-E; Ishihara Sangyo, Japan). After 1 h incubation in KSOM, reconstructed SCNT oocytes were activated by incubation in Ca-free KSOM containing 5 μg/ml cytochalasin B for 1 h and further cultured in KSOM with cytochalasin B for 4 h. Activated SCNT embryos were washed 5 h after the onset of SrCl2 treatment (hours post activation, hpa) and cultured in KSOM in a humidified atmosphere of 5% CO2 at 37.8° C. In some experiments, SCNT embryos were injected with ˜10 pl of water (control), 1800 ng/μl wild-type or mutant (H189A) Kdm4d mRNA at 5-6 hpa by using a Piezo-driven micromanipulator (Primetech). […] Preimplantation developmental rates were statistically analyzed by Student's T-test. […]
substance,measurement,setting,value
"Kdm4d WT mRNA: in vitro transcribed full length mouse Kdm4d mRNA, encoding an H3K9me3-specific histone demethylase",repression of major satellite repeats in 2-cell SCNT embryos (in words),[1],completely restored
same,% of the 222 RRRs activated (FC >2) compared to control SCNT embryos,[1]; 2-cell SCNT embryos,83%
same,SCNT-induced repression of class III retrotransposon elements such as MERVL (in words),[1]; 2-cell SCNT embryos,partly relieved
same,number of the 222 RRRs activated (FC >2),[1]; 2-cell SCNT embryos,184
same,total number of differentially expressed genes (FC >3) between SCNT and IVF 2-cell embryos,[1]; 1212 without injection,475
same,reduction of H3K9me3 levels in SCNT embryos (in words),[2],greatly reduced H3K9me3 levels
